From ChEMBL document CHEMBL4390686, “Design, Synthesis, and Pharmacokinetic Evaluation of Phosphate and Amino Acid Ester Prodrugs for Improving the Oral Bioavailability of the HIV-1 Protease Inhibitor Atazanavir” (J Med Chem, 2019)
≈ marks a conversion by molar mass, not a printed value.

Tests used:
[1] = (§1) Cmax in cannulated Sprague-Dawley rat assessed as (S)-(5S,10S,11S,14S)-11-Benzyl-5,14-di-tert-butyl-3,6,13,16-tetraoxo-8-(4-(pyridin-2-yl)benzyl)-2,17-dioxa-4,7,8,12,15-pentaazaoctadecan-10-yl 2-amino-3-methylbutanoate level at 3 mg/kg equiv of atazanavir administered orally by UPLC/MS/MS analysis; format: ADME, organism-based; parameters: dose 3 mg/kg, route oral; conditions: in vivo, po
[2] = Tmax in cannulated Sprague-Dawley rat assessed as (S)-(5S,10S,11S,14S)-11-Benzyl-5,14-di-tert-butyl-3,6,13,16-tetraoxo-8-(4-(pyridin-2-yl)benzyl)-2,17-dioxa-4,7,8,12,15-pentaazaoctadecan-10-yl 2-amino-3-methylbutanoate level at 3 mg/kg equiv of atazanavir administered orally by UPLC/MS/MS analysis; format: ADME, organism-based; conditions: in vivo, po
[3] = as §1, with “AUClast” for “Cmax”; format: ADME, organism-based; parameters: dose 3 mg/kg, time 0 - last, route oral; conditions: in vivo, po
Protease = Protease (Human immunodeficiency virus 1, UniProt Q9YQ12)
Description: Inhibition of HIV1 protease activity

[4] = rat, in vivo, po, 3 mg/kg
[5] = rat, in vivo, po, 3 mg/kg; remark: listed apart in the source
[6] = rat, in vivo, po, 3 mg/kg; remark: listed apart in the source
Description: AUClast in cannulated Sprague-Dawley rat assessed as atazanavir level at 3 mg/kg equiv of atazanavir administered orally by UPLC/MS/MS analysis

[7] = system: Human immunodeficiency virus 1
Description: Antiviral activity against HIV1 NL4-3 infected in human MT2 cells assessed as reduction in viral yield measured after 4 days by EnduRen live cell substrate based luciferase reporter gene assay

physchem [8] = conditions: 30% CH3CN/HCl buffer, pH 1
Description: Half life in pH 1 30%CH3CN/HCl buffer at 50 mM by RP-UPLC analysis

physchem [9] = conditions: 30% CH3CN/acetate buffer, pH 4
Description: Half life in pH 4 30%CH3CN/acetate buffer at 50 mM by RP-UPLC analysis

physchem [10] = conditions: 30% CH3CN/phosphate buffer, pH 6.5
Description: Half life in pH 6.5 30%CH3CN/phosphate buffer at 50 mM by RP-UPLC analysis

physchem [11] = conditions: HCl buffer, pH 1
Description: Aqueous solubility of the compound in pH 1 HCl buffer by RP-UPLC analysis

physchem [12] = conditions: acetate buffer, pH 4
Description: Aqueous solubility of the compound in pH 4 acetate buffer by RP-UPLC analysis

physchem [13] = conditions: phosphate buffer, pH 6.5
Description: Aqueous solubility of the compound in pH 6.5 phosphate buffer by RP-UPLC analysis

[14] = Stability in pH 6.5 30%CH3CN/phosphate buffer assessed as parent compound remaining at 50 mM measured after 30 mins by RP-UPLC analysis; format: physicochemical; conditions: read-out: Stability
[15] = Cmax in cannulated Sprague-Dawley rat assessed as atazanavir level at 30 mg/kg equiv of atazanavir administered orally by UPLC/MS/MS analysis; format: ADME, organism-based; parameters: dose 30 mg/kg, route oral; conditions: in vivo, po
[16] = Stability in pH 6.5 30%CH3CN/phosphate buffer assessed as parent compound remaining at 50 mM measured after 2 mins by RP-UPLC analysis; format: physicochemical; conditions: read-out: Stability
[17] = Tmax in cannulated Sprague-Dawley rat assessed as atazanavir level at 30 mg/kg equiv of atazanavir administered orally by UPLC/MS/MS analysis; format: ADME, organism-based; conditions: in vivo, po
[18] = AUClast in cannulated Sprague-Dawley rat assessed as atazanavir level at 30 mg/kg equiv of atazanavir administered orally by UPLC/MS/MS analysis; format: ADME, organism-based; parameters: dose 30 mg/kg, route oral, time 0 - last; conditions: in vivo, po
[19] = Cmin in cannulated Sprague-Dawley rat assessed as atazanavir level at 3 mg/kg equiv of atazanavir administered orally measured after 24 hrs by UPLC/MS/MS analysis; format: ADME, organism-based; conditions: in vivo, po, read-out: Cmin
[20] = Cmin in cannulated Sprague-Dawley rat assessed as atazanavir level at 30 mg/kg equiv of atazanavir administered orally measured after 24 hrs by UPLC/MS/MS analysis; format: ADME, organism-based; conditions: in vivo, po, read-out: Cmin
[21] = Cmin in cannulated Sprague-Dawley rat at 3 mg/kg equiv of atazanavir administered orally measured after 24 hrs by UPLC/MS/MS analysis; format: ADME, organism-based; conditions: in vivo, po, BLD = below limit of detection
[22] = Cmin in cannulated Sprague-Dawley rat at 30 mg/kg equiv of atazanavir administered orally measured after 24 hrs by UPLC/MS/MS analysis; format: ADME, organism-based; conditions: in vivo, po, BLD = below limit of detection
[23] = Prodrug conversion in cannulated Sprague-Dawley rat plasma assessed as atazanavir formation at 3 mg/kg equiv of atazanavir administered orally by UPLC/MS/MS analysis; format: ADME, organism-based; conditions: in vivo, po
[24] = Prodrug conversion assessed as recombinant rat intestinal alkaline phosphatase-mediated compound dephosphorylation by measuring half life by UPLC-MS/MS analysis; format: ADME
[25] = Prodrug conversion assessed as recombinant human intestinal alkaline phosphatase-mediated compound dephosphorylation by measuring half life by UPLC-MS/MS analysis; format: ADME; conditions: isolated protein
[26] = Half life in pH 2 30%CH3CN solution at 50 mM by RP-UPLC analysis; format: physicochemical

Protease, sequence (Q9YQ12 whole entry): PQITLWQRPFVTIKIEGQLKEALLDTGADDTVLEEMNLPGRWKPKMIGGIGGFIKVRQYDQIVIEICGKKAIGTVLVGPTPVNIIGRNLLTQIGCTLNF

Cmax [4] [nM] | Tmax [5] [h] | AUClast [6] [µM·h] | half-life at 50000 µM (physchem [8]) [h] | half-life at 50000 µM (physchem [9]) [h] | half-life at 50000 µM (physchem [10]) [h] | solubility (physchem [11]) [µg/mL] | solubility (physchem [12]) [µg/mL] | solubility (physchem [13]) [µg/mL] | further results | Compound
4 | 5 | 0.02 | > 500 | > 500 | > 500 | > 2150 | > 1200 | 780 (≈ 864 µM) | Cmax [1]: 30 nM; Tmax [2]: 3 h; AUClast [3]: 0.085 µM·h; IC50 (Protease): 4 to 1140 nM; EC50 [7]: 0.9 to 1250 nM | COC(=O)N[C@H](C(=O)N[C@@H](Cc1ccccc1)[C@H](CN(Cc1ccc(-c2ccccn2)cc1)NC(=O)[C@@H](NC(=O)OC)C(C)(C)C)OC(=O)[C@@H](NC(=O)[C@@H](N)C(C)C)C(C)C)C(C)(C)C
794 | 1 | 1.533 | > 500 | 9.03 | 0.08 | 1170 |  |  | remaining at 0.5 h, 50000 µM [14]: 2%; Cmax [15]: 8760 nM; remaining at 2 min, 50000 µM [16]: 86.1%; Tmax [17]: 1 h; AUClast [18]: 16.58 µM·h; concentration [19]: 1.9 nM; concentration [20]: 30.4 nM; Cmin [21]: Bld; Cmin [22]: Bld | COC(=O)N[C@H](C(=O)N[C@@H](Cc1ccccc1)[C@H](CN(Cc1ccc(-c2ccccn2)cc1)NC(=O)[C@@H](NC(=O)OC)C(C)(C)C)OC(=O)CN(C)C(=O)[C@@H](N)Cc1ccccc1)C(C)(C)C.Cl.Cl
257 | 0.25 | 0.277 | 0.2 | > 500 | > 500 |  | > 930 | > 1060 | Drug metabolism [23]: Metabolite_Detected; t1/2 [24]: > 0.167 h; t1/2 [25]: 0.35 h; half-life at 50000 µM [26]: 1.95 h | COC(=O)N[C@H](C(=O)N[C@@H](Cc1ccccc1)[C@H](CN(Cc1ccc(-c2ccccn2)cc1)NC(=O)[C@@H](NC(=O)OC)C(C)(C)C)OCOP(=O)([O-])[O-])C(C)(C)C.[Na+].[Na+]
